{
  "source": "patent US7498321B2",
  "about": "“17β-carbothioate 17α-arylcarbonyloxyloxy androstane derivative as anti-inflammatory agents” (Glaxo Group Limited, priority 2000, dated 2009)",
  "key": {"[1]": {"assay": "Pharmacokinetics after intra-tracheal dry powder dosing in the pig", "format": "in vivo", "conditions": "for time after dosing up to which quantifiable in plasma: anaesthetised pigs, intra-tracheal 1 mg, LLOQ 10 (Example 1) and 20 pg/mL (fluticasone propionate)", "description": "Serial blood samples were taken for up to 8 h following dosing."}, "[2]": {"test_system": "human hepatocytes", "assay": "In vitro metabolism in human hepatocytes", "format": "in vitro ADME", "conditions": "for 17-β acid metabolite production: 37° C., 10 μM"}, "[3]": {"assay": "Pharmacokinetics after intravenous (IV) and oral dosing in rats", "format": "in vivo, male Wistar Han rats", "conditions": "rat; for plasma clearance (in words): in vivo"}, "[4]": {"test_system": "rat hepatocytes", "assay": "In vitro metabolism in rat hepatocytes", "format": "in vitro ADME"}, "[5]": {"assay": "Pharmacokinetics after intravenous administration in the anaesthetised pig", "format": "in vivo", "text": "The clearance of these two glucocortocoids is similar is this experimental pig model."}, "[6]": {"target": "T1, glucocorticoid receptor (GR) (Homo sapiens, UniProt P04150)", "T1 construct": "A549 cells stably transfected with a reporter gene containing the NF-κB responsive elements from the ELAM gene promoter; endogenous in cells; host or cells: A549 human lung epithelial cells (stably transfected with reporter only)", "T1 sequence (P04150 1-777)": "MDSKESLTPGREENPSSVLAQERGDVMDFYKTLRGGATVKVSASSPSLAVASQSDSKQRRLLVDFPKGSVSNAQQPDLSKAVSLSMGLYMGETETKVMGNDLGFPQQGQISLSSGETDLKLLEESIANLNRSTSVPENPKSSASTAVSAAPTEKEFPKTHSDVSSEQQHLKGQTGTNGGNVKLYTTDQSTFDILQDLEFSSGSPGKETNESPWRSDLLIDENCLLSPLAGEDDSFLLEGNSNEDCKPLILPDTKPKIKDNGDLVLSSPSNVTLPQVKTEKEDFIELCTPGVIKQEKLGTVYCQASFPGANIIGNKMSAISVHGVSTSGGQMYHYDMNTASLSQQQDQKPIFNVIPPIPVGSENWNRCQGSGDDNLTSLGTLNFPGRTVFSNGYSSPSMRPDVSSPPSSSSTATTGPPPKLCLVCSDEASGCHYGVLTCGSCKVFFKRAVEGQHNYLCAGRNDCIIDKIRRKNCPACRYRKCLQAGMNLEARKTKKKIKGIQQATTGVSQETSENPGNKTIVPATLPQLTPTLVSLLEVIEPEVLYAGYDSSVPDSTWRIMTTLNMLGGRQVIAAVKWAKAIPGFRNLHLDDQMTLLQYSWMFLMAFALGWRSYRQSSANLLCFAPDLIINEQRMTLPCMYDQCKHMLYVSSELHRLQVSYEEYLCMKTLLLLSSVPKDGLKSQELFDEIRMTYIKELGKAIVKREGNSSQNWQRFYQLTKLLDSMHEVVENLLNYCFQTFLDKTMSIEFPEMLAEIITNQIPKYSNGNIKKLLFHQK", "assay": "Functional in vitro assay of glucocorticoid agonist activity (NF-κB/ELAM-sPAP reporter in A549 cells, TNF stimulated)", "format": "cell-based", "conditions": "in vitro functional glucocorticoid agonist assays; versus Example 1", "description": "Pharmacological activity was assessed in a functional in vitro assay of glucocorticoid agonist activity which is generally predictive of anti-inflammatory or anti-allergic activity in vivo.\nThe functional assay was based on that described by K. P. Ray et al., Biochem J. (1997), 328, 707-715. A549 cells stably transfected with a reporter gene containing the NF-κB responsive elements from the ELAM gene promoter coupled to sPAP (secreted alkaline phosphatase) were treated with test compounds at appropriate doses for 1 hour at 37° C. The cells were then stimulated with tumour necrosis factor (TNF, 10 ng/ml) for 16 hours, at which time the amount of alkaline phosphatase produced is measured by a standard colourimetric assay. Dose response curves were constructed from which EC50 values were estimated."}},
  "note": "Several values for one entry are separate records, joined by “and”; a condition that tells them apart may be missing. Equal entries are not always repeated.",
  "data": [
    {"smiles": "C[C@@H]1CC2C3C[C@H](F)C4=CC(=O)C=C[C@]4(C)[C@@]3(F)[C@@H](O)C[C@]2(C)[C@@]1(OC(=O)c1ccco1)C(=O)SCF", "note": "(stereo partly drawn) [Example 1, 6α, 9α-Difluoro-17α-[(2-furanylcarbonyl)oxy]-11β-hydroxy-16α-methyl-3-oxo-androsta-1,4-diene-17β-carbothioic acid S-fluoromethyl ester]", "values": [
      {"measurement": "AUC (0-inf)", "setting": "[1]; Pig 1, intra-tracheal 1 mg dry powder blend in lactose", "result": 0.254, "unit": "ng·h/mL"},
      {"measurement": "AUC (0-inf)", "setting": "[1]; Pig 2, intra-tracheal 1 mg dry powder blend in lactose", "result": 0.221, "unit": "ng·h/mL"},
      {"measurement": "time after dosing up to which quantifiable in plasma", "setting": "[1]", "result": "up to 2 hours"},
      {"measurement": "manner of metabolism (in words)", "setting": "[2]; human hepatocytes", "result": "metabolised in an identical manner to fluticasone propionate"},
      {"measurement": "17-β acid metabolite production", "setting": "[2]; subject 1, 0.2 million cells/mL", "result": 48.9, "unit": "pmol/h"},
      {"measurement": "17-β acid metabolite production", "setting": "[2]; subject 1, 0.7 million cells/mL", "result": 73.3, "unit": "pmol/h"},
      {"measurement": "17-β acid metabolite production", "setting": "[2]; subject 2, 0.2 million cells/mL", "result": 118, "unit": "pmol/h"},
      {"measurement": "17-β acid metabolite production", "setting": "[2]; subject 2, 0.7 million cells/mL", "result": 903, "unit": "pmol/h"},
      {"measurement": "17-β acid metabolite production", "setting": "[2]; subject 3, 0.7 million cells/mL", "result": 580, "unit": "pmol/h"},
      {"measurement": "plasma clearance (in words)", "setting": "[3]", "result": "approaching hepatic blood flow"},
      {"measurement": "oral bioavailability", "setting": "[3]; oral 0.1 mg/kg vs IV 0.1 mg/kg, 0.1 mg/kg", "result": "< 1% and 0.9%"},
      {"measurement": "manner of metabolism (in words)", "setting": "[4]", "result": "metabolised in an identical manner to fluticasone propionate"},
      {"measurement": "clearance compared with fluticasone propionate (in words)", "setting": "[5]; IV 0.1 mg/kg", "result": "similar"},
      {"measurement": "pharmacokinetic parameters compared with fluticasone propionate (in words)", "setting": "[5]; IV mixture of the two compounds at 0.1 mg/kg", "result": "the same"}
    ]},
    {"smiles": "CC1CC2C3CC(F)C4=CC(=O)C=CC4(C)C3(F)C(O)CC2(C)C1(OC(=O)c1ccsc1)C(=O)SCF", "note": "(stereo not drawn) [Example 4, 6α,9α-Difluoro-11β-hydroxy-16α-methyl-3-oxo-17α-[(3-thienylcarbonyl)oxy]-androsta-1,4-diene-17β-carbothioic acid S-fluoromethyl ester]", "values": [
      {"measurement": "plasma clearance (in words)", "setting": "[3]", "result": "approaching hepatic blood flow"}
    ]},
    {"smiles": "Cc1ccoc1C(=O)OC1(C(=O)SCF)C(C)CC2C3CC(F)C4=CC(=O)C=CC4(C)C3(F)C(O)CC21C", "note": "(stereo not drawn) [Example 19, 6α,9α-Difluoro-11β-hydroxy-16α-methyl-17α-[(3-methylfuran-2-carbonyl)oxy]-3-oxo-androsta-1,4-diene-17β-carbothioic acid S-fluoromethyl ester]", "values": [
      {"measurement": "plasma clearance (in words)", "setting": "[3]", "result": "approaching hepatic blood flow"}
    ]},
    {"smiles": "Cc1cc(C(=O)OC2(C(=O)SCF)C(C)CC3C4CC(F)C5=CC(=O)C=CC5(C)C4(F)C(O)CC32C)no1", "note": "(stereo not drawn) [Example 24, 6α,9α-Difluoro-11β-hydroxy-16α-methyl-17α-[(5-methylisoxazole-3-carbonyl)oxy]-3-oxo-androsta-1,4-diene-17β-carbothioic acid S-fluoromethyl ester]", "values": [
      {"measurement": "plasma clearance (in words)", "setting": "[3]", "result": "approaching hepatic blood flow"}
    ]},
    {"smiles": "Cc1cc(C(=O)OC2(C(=O)SCF)C(C)CC3C4CC(F)C5=CC(=O)C=CC5(C)C4(F)C(O)CC32C)on1", "note": "(stereo not drawn) [Example 25, 6α,9α-Difluoro-11β-hydroxy-16α-methyl-17α-[(3-methylisoxazole-5-carbonyl)oxy]-3-oxo-androsta-1,4-diene-17β-carbothioic acid S-fluoromethyl ester]", "values": [
      {"measurement": "plasma clearance (in words)", "setting": "[3]", "result": "approaching hepatic blood flow"}
    ]},
    {"smiles": "CC1CC2C3CC(F)C4=CC(=O)C=CC4(C)C3(F)C(O)CC2(C)C1(OC(=O)c1ccon1)C(=O)SCF", "note": "(stereo not drawn) [Example 28, 6α,9α-Difluoro-11β-hydroxy-17α-[(isoxazole-3-carbonyl)oxy]-16α-methyl-3-oxo-androsta-1,4-diene-17β-carbothioic acid S-fluoromethyl ester]", "values": [
      {"measurement": "plasma clearance (in words)", "setting": "[3]", "result": "approaching hepatic blood flow"}
    ]},
    {"smiles": "CCC(=O)O[C@]1(C(=O)SCF)[C@H](C)C[C@H]2[C@@H]3C[C@H](F)C4=CC(=O)C=C[C@]4(C)[C@@]3(F)[C@@H](O)C[C@@]21C", "note": "[Fluticasone propionate, 6α, 9α-Difluoro-17α-(1-oxopropoxy)-11β-hydroxy-16α-methyl-3-oxo-androsta-1,4-diene-17β-carbothioic acid S-fluoromethyl ester, reference compound]", "values": [
      {"measurement": "time after dosing up to which quantifiable in plasma", "setting": "[1]", "result": "up to 8 hours"}
    ]},
    {"smiles": "C[C@@H]1C[C@H]2[C@@H]3C[C@H](F)C4=CC(=O)C=C[C@]4(C)[C@@]3(F)[C@@H](O)C[C@]2(C)[C@@]1(OC(=O)c1ccco1)C(=O)O", "note": "[Metabolite (X)]", "values": [
      {"measurement": "fold less active than the parent compound", "setting": "[6]", "result": "> 1000", "unit": "fold"}
    ]}
  ]
}
